Assay results from patent US10111847B2, “Compounds and methods for modulating vascular injury” (The Regents of the University of California, priority 2012, dated 2018).

Legend:
Format in all cases: cell-based, human
VCAM-1 = test: TNF-α-stimulated VCAM-1 gene expression in VSMC by qRT-PCR; conditions: 100 nM; TNF-α 10 ng/ml 18 hours; P<0.01
Method: Cells are plated onto 6-well plates at 100% confluency in DMEM plus 10% FBS and allowed to attached overnight. Cells are then made quiescent by placing in serum-free media for 48-72 hours prior to start of experiments. Cells are treated with or without RvD1 or RvD2 at the indicated concentrations for one hour followed by co-incubation with cytokine (TNF-α 10 ng/ml) for up to 18 hours. In a separate set of experiments to examine the role of G-protein receptors, VSMCs are exposed to TNF-α and RvD2 (10 nM) as described above, in the presence or absence of pertussis toxin (PTX 100 ng/ml). Total RNA from rabbit sample or cells is isolated with PureLink RNA Mini kit (Ambion Life Technologies, Carlsbad, Calif.) with RNase-free DNase treatment according to manufacturer's protocol. One microgram of total RNA (from either VSMC or rabbit tissue) is used to generate cDNA using High Capacity cDNA Reverse Transcription Kit (Applied Biosystems, Foster City, Calif.) for subsequent RT-PCR reactions. Sybrgreen Amplified DNA is detected by incorporation SYBR Green (Qiagen, Germantown, Md.). Dissociation curve analyses are performed to confirm the specificity of the SYBR Green signal. Data is normalized to at least two reference genes. […]
FIG. 2: RvD1 and RvD2 reduce pro-inflammatory gene expression in VSMC. […] Expression of the cell adhesion molecules VCAM-1 (A) and ICAM-1 (B) was measured by qRT-PCR. […]

TNF-α-stimulated VSMC = test: Static monocyte (U937) adhesion assay, TNF-α-stimulated VSMC (RvD); conditions: U937 monocytes; TNF-α 10 ng/ml 4 hours; peak inhibition at 10 nM
From the text: (§1) Primary cultures of human greater saphenous vein smooth muscle cells (hVSMC) are isolated from saphenous vein discarded at the time of bypass operation in an Institutional Review Board-approved protocol as described by Conte et al. “Regulation of vein graft hyperplasia by survivin, an inhibitor of apoptosis protein.” Arterioscler Thromb Vasc Biol. 2005; 25:2081-2087. VSMCs are maintained in Dulbecco's modified Eagle's medium (DMEM Low Glucose) (HyClone Laboratories Inc, Logan, Utah) containing 10% fetal bovine serum (FBS) (Invitrogen Life Technologies, Grand Island, N.Y.) and used between passages 2-5. Endothelial cells were maintained in Medium 199 supplemented with EBSS (Hyclone Laboratories, Logan, Utah, USA) and Endothelial Cell Growth Supplement. Cells between passages 3-8 were used for the experiments.
(§2) RvD. […] Fluorescence measurements (excitation 494 nm, emission 517 nm) of bound monocytes are made with plate reader (Spectra Max M2, Molecular Devices, LLC, Sunnyvale, Calif.).
(§3) FIG. 1: RvD1 and RvD2 attenuate cell adhesion, proliferation, and migration responses of human VSMC in-vitro. […] Results are shown as relative percent inhibition, expressed as a percentage of the maximal adhesion for the agonist (n=6, results are mean±SEM, **P<0.01, *P<0.05, unpaired t-test). […] Results are expressed as percentage change in migration from unstimulated control (no PDGF). […]

IL-1β-stimulated VSMC = test: Static monocyte (U937) adhesion assay, IL-1β-stimulated VSMC (RvD); conditions: IL-1β 1 nM 4 hours; 0.01-100 nM
From the text: as §1, §2
FIG. 6: RvD1 and RvD2 modulate cell adhesion response of human VSMC to IL-1β. […] Results are shown as relative percent inhibition, expressed as a percentage of the maximal adhesion for the agonist (n=6, results are mean±SEM, **P<0.01, *P<0.05, unpaired t-test).

VSMC = VSMC proliferation assay (Alamar Blue) in 10% serum; conditions: 100 nM; standard growth medium (10% serum); P<0.01
From the text: Primary cultures of human greater saphenous vein smooth muscle cells (hVSMC) are isolated from saphenous vein discarded at the time of bypass operation in an Institutional Review Board-approved protocol as described by Conte et al. “Regulation of vein graft hyperplasia by survivin, an inhibitor of apoptosis protein.” Arterioscler Thromb Vasc Biol. 2005; 25:2081-2087. VSMCs are maintained in Dulbecco's modified Eagle's medium (DMEM Low Glucose) (HyClone Laboratories Inc, Logan, Utah) containing 10% fetal bovine serum (FBS) (Invitrogen Life Technologies, Grand Island, N.Y.) and used between passages 2-5. […]
Cell proliferation assay is performed as described by Conte et al. Arterioscler Thromb Vasc Biol. 2005; 25:2081-2087. […] Fluorescence measurements (excitation 506 nm, emission 590 nm) are made on media aliquots; a standard curve is generated by correlating emission intensity with viable cell counts using Trypan Blue exclusion.
as §3

SMILES	VCAM-1 expression, maximum % reduction (VCAM-1) [%]	maximum % inhibition of monocyte adhesion (TNF-α-stimulated VSMC) [%]	inhibition of monocyte adhesion (U937) to IL-1β-stimulated VSMC (IL-1β-stimulated VSMC)	inhibition of VSMC proliferation, maximum effect (VSMC) [%]
CC/C=C\C[C@H](O)[C@H](O)/C=C/C=C/C=C\C=C\[C@@H](O)C/C=C\CCC(=O)O [RvD2, resolvin D2]	76	41	dose-dependent inhibition	63
CC/C=C\C[C@H](O)/C=C/C=C\C=C\C=C\[C@@H](O)[C@@H](O)C/C=C\CCC(=O)O [RvD1, Resolvin D1]	69	36	dose-dependent inhibition	59
